Source: patent US9131716B2, “Use of neoflavonoids for flavor modification” (SYMRISE AG, priority 2011, dated 2015)
Marks after values point to notes of the source that are not given here.

Key:
[1] = Reduction of bitterness of a naringin solution, panel of experts; assay type: in vivo; details: 100 ppm naringin
Text: (§1) In order to quantify the reduction (i.e. the masking or decrease) of the impression of bitterness in a sample, the bitterness of a solution containing 500 ppm caffeine or 200 ppm theobromine or 100 ppm naringin or 250 ppm salicin was compared by a panel of experts in each case with a sample that contained 500 ppm caffeine or 200 ppm theobromine or 100 ppm naringin or 250 ppm salicin and additionally the amount stated in each case of a substance to be assessed (with respect to capacity for reducing bitterness) (classification: 1 [not bitter] through 10 [extremely bitter]). The evaluation, i.e. calculation of the reduction (in %) of the impression of bitterness, was based in each case on the mean values of the appraisals of the panel of experts.

[2] = Reduction of bitterness of a caffeine solution, panel of experts; assay type: in vivo; details: 500 ppm caffeine; for Impression of bitterness (1-10) b) with test substance: scale 1-10
Text: as §1

[3] = Reduction of bitterness of a theobromine solution, panel of experts; assay type: in vivo; details: 300 ppm theobromine; for Impression of bitterness (1-10) b) with test substance: scale 1-10
[4] = Reduction of bitterness of a salicin solution, panel of experts; assay type: in vivo; details: 250 ppm salicin, 50 ppm test substance
Text: as §1

[5] = Reduction of bitterness/astringency of an EGCG solution as a function of time, panel of experts; assay type: in vivo; details: 750 ppm EGCG + 125 ppm ascorbic acid, 50 ppm test substance
Text: In order to quantify the reduction (i.e. the masking or decrease) of the impression of bitterness or astringency in a sample over a specified course of time, the bitterness, or astringency of a solution containing 750 ppm epigallocatechin gallate (EGCG) and 125 ppm ascorbic acid was compared by a panel of experts in each case with a sample that contained 750 ppm epigallocatechin gallate, 125 ppm ascorbic acid and additionally the amount stated in each case of a substance to be assessed (with respect to capacity for reducing bitterness), in this case a racemic mixture of compounds (7) and (8) (classification: 1 [not bitter] through 10 [extremely bitter]; or 1 [not astringent] through 10 [extremely astringent]). […] The samples were assessed by the members of the panel one after another after neutralization. The evaluation, i.e. calculation of the reduction (in %) of the impression of bitterness/astringency was based at each measurement time point in each case on the mean values of the appraisals of the panel of experts for the epigallocatechin gallate solution and the sample to be compared, containing epigallocatechin gallate and a substance to be assessed.

BGC823 cancer cell line = details: from CN 101906090; cited from earlier work
Caco-2 cells = details: from Chem. Pharm. Bull. 2010, 58, 242-246; cited from earlier work
[6] = 25 ppm test substance, scale 1-10

**Q.** With `O=C1CC(c2ccccc2O)c2c(O)cc(O)cc2O1` (racemic) [(1) + (2), 5,7-dihydroxy-4-(2-hydroxyphenyl)chroman-2-one] as the compound, how does the “% reduction of the impression of bitterness” value (from here on “% reduction … of bitterness”) ([1]; 5 ppm test substance) read?
**A.** Its value is 31.7%.

**Q.** What about the “Impression of bitterness (1-10) b) with test substance” value (from here on “Impression … with test substance”) ([1]; 5 ppm test substance, scale 1 [not bitter] through 10 [extremely bitter]) of the same compound?
**A.** Its value is 3.7 ± 2.6.

**Q.** With `COc1cc(C2CC(=O)Oc3cc(O)cc(O)c32)ccc1O` (racemic) [(5) + (6), 5,7-dihydroxy-4-(4-hydroxy-3-methoxyphenyl)chroman-2-one] as the compound, how does the “% reduction … of bitterness” value ([1]; 25 ppm test substance) read?
**A.** The value was 49.0%.

**Q.** And the “Impression … with test substance” value [1, 6]?
**A.** Its value is 3.1 ± 1.4.

**Q.** And the “% reduction … of bitterness” value ([2]; 50 ppm test substance)?
**A.** The value was 23.5%.

**Q.** What about the “Impression … with test substance” value ([2]; 50 ppm test substance) of the same compound?
**A.** Its value is 3.0 ± 1.3.

**Q.** What about the “% reduction … of bitterness” value ([3]; 25 ppm test substance) of the same compound?
**A.** Its value is 30.3%.

**Q.** What about the “Impression … with test substance” value ([3]; 25 ppm test substance) of the same compound?
**A.** Its value is 3.1 ± 1.6.

**Q.** And the “% reduction … of bitterness” value [4]?
**A.** Its value is 11.1%.

**Q.** What about the “Impression … with test substance” value ([4]; scale 1-10) of the same compound?
**A.** Its value is 5.9 ± 2.5.

**Q.** With `O=C1CC(c2ccc(O)cc2)c2c(O)cc(O)cc2O1` (racemic) [(7) + (8), 5,7-dihydroxy-4-(4-hydroxyphenyl)chroman-2-one] as the compound, how does the “% reduction … of bitterness” value ([1]; 25 ppm test substance) read?
**A.** Its value is 48.6%.

**Q.** And the “Impression … with test substance” value [1, 6]?
**A.** Its value is 2.9 ± 1.9.

**Q.** What about the “% reduction … of bitterness” value ([2]; 25 ppm test substance) of the same compound?
**A.** Its value is 15.5%.

**Q.** And the “Impression … with test substance” value ([2]; 25 ppm test substance)?
**A.** Its value is 3.4 ± 1.4.

**Q.** And the “% reduction … of bitterness” value ([3]; 10 ppm test substance)?
**A.** Its value is 21.7%.

**Q.** What about the “Impression … with test substance” value ([3]; 10 ppm test substance) of the same compound?
**A.** Its value is 3.6 ± 1.5.

**Q.** And the “% reduction of the impression of astringency” value (from here on “% reduction … of astringency”) ([5]; time 0 s)?
**A.** Its value is −1%.

**Q.** And the “% reduction … of bitterness” value ([5]; time 0 s)?
**A.** The value was −14%.

**Q.** And the “% reduction … of astringency” value ([5]; time 10 s)?
**A.** Its value is −7%.

**Q.** And the “% reduction … of bitterness” value ([5]; time 10 s)?
**A.** Its value is −22%*.

**Q.** What about the “% reduction … of astringency” value ([5]; time 30 s) of the same compound?
**A.** Its value is −7%.

**Q.** And the “% reduction … of bitterness” value ([5]; time 30 s)?
**A.** Its value is −25%*.

**Q.** And the “% reduction … of astringency” value ([5]; time 50 s)?
**A.** Its value is −19%.

**Q.** And the “% reduction … of bitterness” value ([5]; time 50 s)?
**A.** Its value is −35%*.

**Q.** And the “% reduction … of astringency” value ([5]; time 70 s)?
**A.** The value was −15%.

**Q.** And the “% reduction … of bitterness” value ([5]; time 70 s)?
**A.** The value was −29%.

**Q.** What does the source list for `O=C1CC(c2ccc(O)cc2)c2ccc(O)cc2O1` (racemic) [(17) + (18), 7-hydroxy-4-(4-hydroxyphenyl)chroman-2-one]?
**A.** % reduction of the impression of bitterness ([1]; 25 ppm test substance): 44.3%; Impression of bitterness (1-10) b) with test substance [1, 6]: 3.0 ± 1.6

**Q.** What does the source list for `COc1cc(C2CC(=O)Oc3cc(O)ccc32)ccc1O` (racemic) [(23) + (24), 7-hydroxy-4-(4-hydroxy-3-methoxyphenyl)chroman-2-one]?
**A.** % reduction of the impression of bitterness ([3]; 25 ppm test substance): 22.4%; Impression of bitterness (1-10) b) with test substance ([3]; 25 ppm test substance): 3.5 ± 1.6

**Q.** Which “effectiveness against the BGC823 cancer cell line” value (BGC823 cancer cell line) does the source give for `COc1ccc(C2CC(=O)Oc3cc(O)ccc32)cc1O` (centres unmarked) [(39)] here?
**A.** Its value is “effective”.

**Q.** With `COc1cc(C2CC(=O)Oc3cc(O)cc(OC)c32)cc(OC)c1OC` (centres unmarked) [(40)] as the compound, how does the “cytotoxicity against Caco-2 cells” value (Caco-2 cells) read?
**A.** The value was “strong cytotoxicity”.
